From patent US8691761B2, “Somatostatin receptor 2 antagonists” (priority 2006, dated 2014)
“Also recorded” adds a separate entry of the source. Values belong to the molecule of their own block, whether it stands above or below them. Bridge positions count the residues as written; N and C are the ends. Square brackets hold non-standard residues; d marks the D form. Peptide text beside a SMILES is read from it. * marks the point of attachment. DOTA = O=C(O)CN1CCN(CC(=O)O)CCN(CC(=O)*)CCN(CC(=O)O)CC1; dPhe(4-NHCONH2) = NC(=O)Nc1ccc(C[C@@H](N)C(=O)O)cc1; Dihydroorotyl(S) = O=C1C[C@@H](C(=O)*)NC(=O)N1; Phe(4-Cl) = N[C@@H](Cc1ccc(Cl)cc1)C(=O)O; Phe(4-NH2) = Nc1ccc(C[C@H](N)C(=O)O)cc1; 2Nal = N[C@@H](Cc1ccc2ccccc2c1)C(=O)O; NMeK = CN[C@@H](CCCCN)C(=O)O

How the values were obtained:
human sst2A receptor = biological target: T1, human sst2A receptor (Homo sapiens, UniProt P30874); experiment: Immunofluorescence-based sst2 internalization assay in HEK-sst2 cells; format: cell-based; settings: n ≧ 2
T1 construct: expressed in transfected cells; host or cells: HEK293 (HEK-sst2)
T1 sequence (P30874 whole entry): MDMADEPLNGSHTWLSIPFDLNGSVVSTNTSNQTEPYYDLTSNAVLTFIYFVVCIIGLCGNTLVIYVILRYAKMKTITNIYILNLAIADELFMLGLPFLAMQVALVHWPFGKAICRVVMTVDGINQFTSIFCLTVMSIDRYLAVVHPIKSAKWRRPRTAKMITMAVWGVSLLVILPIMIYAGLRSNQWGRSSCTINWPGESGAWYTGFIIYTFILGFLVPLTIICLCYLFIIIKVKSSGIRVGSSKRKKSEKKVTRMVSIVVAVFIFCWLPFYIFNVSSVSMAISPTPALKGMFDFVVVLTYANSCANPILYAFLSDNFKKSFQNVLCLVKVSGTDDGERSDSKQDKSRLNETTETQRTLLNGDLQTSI
In short: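 HEK-sst2 cells treated with vehicle, 100 nM [Tyr^3]-octreotide, octreotide plus 100-fold excess test analogue, or test analogue alone at 10 μM. Receptor internalization visualized by immunofluorescence microscopy with sst2-specific antibody R2-88.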

sst2 [1] = biological target: T2, sst2 (Homo sapiens, UniProt P30874); settings: cited from earlier work
Target sequence in this assay (P30874 whole entry, species assumed): as the sequence (P30874 whole entry) above

sst3 = sst3 (Homo sapiens, UniProt P32745); settings: literature value compared with own IC50; read-out: reported value at sst3 (Hocart et al.); cited from earlier work
Sequence of sst3 (P32745 whole entry, species assumed): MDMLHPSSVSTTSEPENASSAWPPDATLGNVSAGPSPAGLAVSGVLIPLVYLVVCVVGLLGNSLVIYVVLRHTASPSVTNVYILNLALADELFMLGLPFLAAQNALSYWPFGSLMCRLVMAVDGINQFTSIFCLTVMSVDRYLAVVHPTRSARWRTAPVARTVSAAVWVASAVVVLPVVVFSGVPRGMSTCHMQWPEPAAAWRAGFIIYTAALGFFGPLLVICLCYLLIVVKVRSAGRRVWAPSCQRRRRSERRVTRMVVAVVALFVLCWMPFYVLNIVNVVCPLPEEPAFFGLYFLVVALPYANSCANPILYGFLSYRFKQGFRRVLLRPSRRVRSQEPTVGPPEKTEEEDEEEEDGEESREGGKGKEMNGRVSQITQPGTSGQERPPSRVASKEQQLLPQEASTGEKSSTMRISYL

sst2 [2] = biological target: T2, sst2; experiment: Calcium release assay in HEK-sst2 cells (Fluo-4NW); format: cell-based; design: expressed in transfected cells; host or cells: HEK293 (HEK-sst2); settings: n ≧ 2
Target sequence in this assay (P30874 whole entry): as the sequence (P30874 whole entry) above

hSSTR1 = biological target: T3, hSSTR1 (Homo sapiens, UniProt P30872); experiment: Receptor autoradiography, displacement of 125I-[Leu8,D-Trp22,Tyr25]-SRIF-28 from membrane pellet sections; format: binding; settings: Table 3; mean ± SEM when N ≧ 3; read-out: sst1 binding affinity (IC50)
T3 construct: expressed in transfected cells; host or cells: CHO-K1 or CCL39 cells
T3 sequence (P30872 whole entry): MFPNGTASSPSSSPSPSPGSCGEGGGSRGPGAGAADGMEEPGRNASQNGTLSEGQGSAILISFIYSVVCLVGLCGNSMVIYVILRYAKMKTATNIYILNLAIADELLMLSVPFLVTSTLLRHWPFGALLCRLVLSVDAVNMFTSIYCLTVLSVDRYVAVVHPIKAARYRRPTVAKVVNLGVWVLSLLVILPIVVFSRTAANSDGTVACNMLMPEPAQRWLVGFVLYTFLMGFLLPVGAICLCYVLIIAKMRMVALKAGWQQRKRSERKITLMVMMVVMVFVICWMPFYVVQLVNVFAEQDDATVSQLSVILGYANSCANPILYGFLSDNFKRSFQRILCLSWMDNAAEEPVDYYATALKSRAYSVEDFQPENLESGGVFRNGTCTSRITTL

hSSTR2 = biological target: T4, hSSTR2 (Homo sapiens, UniProt P30874); experiment: as above; format: binding; settings: Table 3; mean ± SEM when N ≧ 3; read-out: sst2 binding affinity (IC50)
T4 construct: expressed in transfected cells; host or cells: CHO-K1 or CCL39 cells
T4 sequence (P30874 whole entry): as the sequence (P30874 whole entry) above

hSSTR3 = biological target: T5, hSSTR3 (Homo sapiens, UniProt P32745); experiment: as above; format: binding; settings: Table 3; mean ± SEM when N ≧ 3; read-out: sst3 binding affinity (IC50)
T5 construct: expressed in transfected cells; host or cells: CHO-K1 or CCL39 cells
T5 sequence (P32745 whole entry): as the sequence (P32745 whole entry, species assumed) above

hSSTR4 = biological target: T6, hSSTR4 (Homo sapiens, UniProt P31391); experiment: as above; format: binding; settings: Table 3; mean ± SEM when N ≧ 3; read-out: sst4 binding affinity (IC50)
T6 construct: expressed in transfected cells; host or cells: CHO-K1 or CCL39 cells
T6 sequence (P31391 whole entry): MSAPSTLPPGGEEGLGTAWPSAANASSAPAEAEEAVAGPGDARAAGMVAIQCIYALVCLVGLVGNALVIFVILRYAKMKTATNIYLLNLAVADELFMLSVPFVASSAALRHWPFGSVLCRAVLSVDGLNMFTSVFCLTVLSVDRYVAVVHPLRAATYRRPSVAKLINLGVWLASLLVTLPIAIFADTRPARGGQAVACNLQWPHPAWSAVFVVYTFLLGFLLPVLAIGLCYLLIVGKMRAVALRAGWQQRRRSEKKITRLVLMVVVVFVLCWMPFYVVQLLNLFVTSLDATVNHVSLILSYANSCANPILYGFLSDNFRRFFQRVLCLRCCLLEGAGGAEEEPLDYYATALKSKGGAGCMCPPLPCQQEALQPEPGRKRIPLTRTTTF

HEK-sst2 tumors [3] = settings: female, athymic nude, mouse, in vivo, iv, 4 h
Experimental: (§1) The following protocol was used to determine biodistribution
(§2) Confirmation that the transfected tumors were indeed expressing solely sst2 was obtained in resected tumor samples tested in vitro with somatostatin receptor autoradiography using subtype selective ligands.
(§3) The biodistribution of was studied at 4 h or 24 h after injection. The organs of interest were collected, blotted dry, weighed, their radioactivity measured and the percentage of injected activity per gram (% IA/g) calculated.

in vivo = settings: female, athymic nude, mouse, iv, total radioactivity, biodistribution
Experimental: as §1, §2, §3

HEK-sst2 tumors [4] = experiment: In vivo biodistribution of radiolabeled peptides in nude mice bearing HEK-sst2 tumors
Experimental: as §1, §2, §3

[5] = biological target: T7-epitope-tagged human sst2 (Homo sapiens, UniProt P30874); experiment: Quantitative assay for sst2 internalization (ELISA) in HEK-sst2 cells; format: cell-based; settings: FIG. 3
Sequence of T7-epitope-tagged human sst2 (P30874 whole entry): as the sequence (P30874 whole entry) above
Experimental: Quantitative assay for sst2 internalization (ELISA) Receptor internalization was determined using an ELISA to quantitate T7-epitope-tagged human sst2 on the cell surface. HEK-sst2 cells were seeded on poly-D-lysine (20 μg/mL) coated 24-well plates (250,000 cells per well) in growth medium and cultured for 1 day at 37° C. and 5% CO2. […] After washing with DMEM-LH to remove unbound antibody, cells were incubated for 30 min at 37° C. and 5% CO2 either without or with the ligands added at the concentrations indicated. Incubations were terminated by placing the plates in an ice bath. Cells were then washed twice with cold PBS and fixed for 10 min at room temperature with 3% paraformaldehyde in PBS (pH 7.4). […] After 3 additional washes with PBS, antibody binding was measured by adding 0.3 mL substrate mix for horseradish peroxidase (ABTS). The OD405 was measured after an approximately 30 min incubation at room temperature. The amount of sst2 remaining at the cell surface after ligand treatment was calculated as the absorbance measured in treated cells expressed as a percentage of the absorbance in untreated cells. Nonspecific absorbance was determined in experiments in which HEK293-sst2 cells were incubated without the anti-T7 antibody. […]

sst2-internalization tested in vitro in HEK-sst2 cells (function) (human sst2A receptor): Antagonist
Calcium release tested in vitro in HEK-sst2 cells (function) (sst2 [2]): Antagonist
Structure (SMILES): C[C@@H](O)[C@@H]1NC(=O)[C@H](CCCCN)NC(=O)[C@@H](Cc2c[nH]c3ccccc23)NC(=O)[C@H](Cc2ccc(O)cc2)NC(=O)[C@H](NC(=O)[C@@H](N)Cc2ccc(Cl)cc2)CSSC[C@@H](C(=O)N[C@@H](Cc2ccc3ccccc3c2)C(N)=O)NC1=O [compound 7, H2N-Cpa-c[DCys-Tyr-DTrp-Lys-Thr-Cys]-2Nal-NH2, reference compound] (H-[Phe(4-Cl)][dC]Y[dW]KTC[2Nal]-NH2; disulfide 2-7)
IC50 (sst2 [1]; literature value compared with own IC50, read-out: reported value at sst2 (Hocart et al.)): 26 nM
IC50 (sst3): 93 nM

IC50 (hSSTR1): > 1000 nM
IC50 (hSSTR2): 10 ± 3.5 nM
IC50 (hSSTR3): 61 ± 14 nM
IC50 (hSSTR4): 715 ± 137 nM
sst2-internalization tested in vitro in HEK-sst2 cells (function) (human sst2A receptor): Antagonist
Calcium release tested in vitro in HEK-sst2 cells (function) (sst2 [2]): Antagonist
Structure (SMILES): C[C@@H](O)[C@@H]1NC(=O)[C@H](CCCCN)N(C)C(=O)[C@@H](Cc2c[nH]c3ccccc23)NC(=O)[C@H](Cc2ccc(O)cc2)NC(=O)[C@H](NC(=O)[C@@H](N)Cc2ccc(Cl)cc2)CSSC[C@@H](C(=O)N[C@@H](Cc2ccc3ccccc3c2)C(N)=O)NC1=O [compound 8, H2N-Cpa-c[DCys-Tyr-DTrp-NMeLys-Thr-Cys]-2Nal-NH2, reference compound] (H-[Phe(4-Cl)][dC]Y[dW][NMeK]TC[2Nal]-NH2; disulfide 2-7)
increase of binding affinity at sst2 versus 7 in Hocart et al. assay (sst2 [1]): 5 fold

Structure (SMILES): C[C@@H](O)[C@@H]1NC(=O)[C@H](CCCCN)NC(=O)[C@@H](Cc2ccc(NC(N)=O)cc2)NC(=O)[C@H](Cc2ccc(NC(=O)[C@@H]3CC(=O)NC(=O)N3)cc2)NC(=O)[C@H](NC(=O)[C@H](Cc2ccc(Cl)cc2)NC(=O)CN2CCN(CC(=O)O)CCN(CC(=O)O)CCN(CC(=O)O)CC2)CSSC[C@@H](C(N)=O)NC1=O [^111In-labelled Peptide No. 33, metal not drawn] ({DOTA}-[Phe(4-Cl)][dC][Phe(4-NH2)](Dihydroorotyl(S))[dPhe(4-NHCONH2)]KTC-NH2; disulfide 2-7)
biodistribution, intestine (HEK-sst2 tumors [3]): 0.09 % IA/g
biodistribution, kidney (HEK-sst2 tumors [3]): 10.3 % IA/g
biodistribution, lung (HEK-sst2 tumors [3]): 0.21 % IA/g
biodistribution, spleen (HEK-sst2 tumors [3]): 0.2 % IA/g
biodistribution, stomach (HEK-sst2 tumors [3]): 0.12 % IA/g
tissue uptake at 4 h (in vivo; adrenal): 0.23 %ID/g
tissue uptake at 4 h (in vivo; blood): 0.12 %ID/g
tissue uptake at 4 h (in vivo; bone): 0.04 %ID/g
tissue uptake at 4 h (in vivo; heart): 0.05 %ID/g
tissue uptake at 4 h (in vivo; liver): 0.32 %ID/g
tissue uptake at 4 h (in vivo; muscle): 0.02 %ID/g
tissue uptake at 4 h (in vivo; pancreas): 0.05 %ID/g
tissue uptake at 4 h (in vivo; pituitary): 0.14 %ID/g
tissue uptake at 4 h (in vivo; sst2 tumor): 0.22 %ID/g
tissue uptake at 4 h (in vivo; sst3 tumor): 0.14 %ID/g
effect of excess unlabelled compound on binding in vivo (HEK-sst2 tumors [4]; 1000- or 2000-fold excess of unlabelled compound): inhibited binding

function in the ELISA internalization assay [5]: antagonistic properties
Calcium release tested in vitro in HEK-sst2 cells (function) (sst2 [2]): Antagonist
tumor to kidney ratio (in words) (HEK-sst2 tumors [4]; mouse, in vivo): excellent tumor to kidney ratio
Structure (SMILES): C[C@@H](O)[C@@H]1NC(=O)[C@H](CCCCN)NC(=O)[C@@H](Cc2c[nH]c3ccccc23)NC(=O)[C@H](Cc2ccc(O)c(I)c2)NC(=O)[C@H](NC(=O)[C@H](Cc2ccc([N+](=O)[O-])cc2)NC(=O)CN2CCN(CC(=O)O)CCN(CC(=O)O)CCN(CC(=O)O)CC2)CSSC[C@@H](C(=O)N[C@H](Cc2ccc(O)cc2)C(N)=O)NC1=O [Peptide No. 32, DOTA-pNO2Phe-c[DCys-ITyr-DTrp-Lys-Thr-Cys]-DTyr-NH2]
sst2-internalization tested in vitro in HEK-sst2 cells (function) (human sst2A receptor): antagonistic property; also recorded: Antagonist
